Laboratory results taken from the supplement of paper PMC10307832.

Key:
Experiment in all cases: relative viability (nuclei count vs DMSO), 5 days (fraction); higher = more cells survive
[1] = compound: CC1(COc2ccc3c(c2)ncn3-c2ccc3cccc(N4CCC(N)CC4)c3n2)COC1 [Crenolanib] + C[C@]1(O)C[C@@H](c2nc(-c3ccc4ccc(-c5ccccc5)nc4c3)c3c(N)nccn32)C1 [Linsitinib] (partner 1 µM)
Method in brief: (§1)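 Medians of duplicate plates are given as relative viability. That measure is the nuclei count in treated wells divided by the count in vehicle wells. Counts were taken on 4× images of lung cancer cell lines in 1536-well plates, 5 days after pin-tool dosing the day after seeding with one drug alone or a fixed anchor-drug dose plus five library-drug doses (not always all listed) in √10 steps.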

[2] = compound: CC1(COc2ccc3c(c2)ncn3-c2ccc3cccc(N4CCC(N)CC4)c3n2)COC1 [Crenolanib] + COc1cc2c(Oc3ccc(NC(=O)C4(C(=O)Nc5ccc(F)cc5)CC4)cc3F)ccnc2cc1OCCCN1CCOCC1 [Foretinib] (partner 0.25 µM)
Method in brief: as §1

[3] = compound: O=C1NC(=O)[C@@H](c2cn3c4c(cccc24)CCC3)[C@@H]1c1c[nH]c2ccccc12 [Tivantinib] + CS(=O)(=O)N1CCN(Cc2cc3nc(-c4cccc5[nH]ncc45)nc(N4CCOCC4)c3s2)CC1 [Pictilisib] (partner 1 µM)
Method in brief: as §1

[4] = compound: CC1(COc2ccc3c(c2)ncn3-c2ccc3cccc(N4CCC(N)CC4)c3n2)COC1 [Crenolanib] + C[C@@H](Oc1cc(-c2cnn(C3CCNCC3)c2)cnc1N)c1c(Cl)ccc(F)c1Cl [Crizotinib] (partner 1 µM)
Method in brief: as §1

Cell Line | relative viability ([1]; first compound 0.01 µM) | relative viability ([1]; first compound 0.03162 µM) | relative viability ([1]; first compound 0.1 µM) | relative viability ([1]; first compound 0.3162 µM) | relative viability ([1]; first compound 1 µM) | relative viability ([2]; first compound 0.01 µM) | relative viability ([2]; first compound 0.03162 µM) | relative viability ([2]; first compound 0.1 µM) | relative viability ([2]; first compound 0.3162 µM) | relative viability ([2]; first compound 1 µM) | relative viability ([3]; first compound 0.01 µM) | relative viability ([3]; first compound 0.03162 µM) | relative viability ([3]; first compound 0.1 µM) | relative viability ([3]; first compound 0.3162 µM) | relative viability ([4]; first compound 0.01 µM) | relative viability ([4]; first compound 0.03162 µM) | relative viability ([4]; first compound 0.1 µM) | relative viability ([4]; first compound 0.3162 µM) | relative viability ([4]; first compound 1 µM)
HCC-366 | 0.628 | 0.738 | 0.574 | 0.819 | 0.69 | 0.918 | 0.954 | 0.956 | 0.942 | 0.938 | 0.157 | 0.147 | 0.119 | 0.141 | 0.487 | 0.466 | 0.481 | 1.04 | 0.462
A-427 | 1.1 | 1.06 | 1.08 | 1.15 | 1.15 | 1.05 | 0.969 | 1.14 | 1.1 | 1.09 | 0.663 | 0.702 | 0.677 | 0.749 | 0.854 | 0.946 | 0.804 | 0.87 | 1.02
NCI-H23 | 0.563 | 0.671 | 0.548 | 0.759 | 0.648 | 1.12 | 1.13 | 0.97 | 0.995 | 1.06 | 0.43 | 0.324 | 0.533 | 0.382 | 0.689 | 0.476 | 0.615 | 0.441 | 0.575
NCI-H1755 | 1.01 | 0.981 | 0.994 | 1.09 | 0.959 | 0.944 | 0.905 | 0.889 | 0.937 | 0.908 | 0.462 | 0.417 | 0.39 | 0.355 | 0.835 | 0.932 | 0.832 | 0.917 | 0.854
EPLC-272H |  | 1.19 | 0.982 | 1.18 | 1.06 | 0.792 | 0.588 | 0.643 | 0.64 | 0.797 | 0.346 | 0.3 | 0.357 | 0.278 |  | 0.855 | 0.877 | 0.918 | 1.01
PC-3 [JPC-3] | 0.965 | 0.956 | 0.899 | 0.988 | 0.887 | 1.16 | 1.12 | 0.955 | 1.05 | 1.03 | 0.687 | 0.705 | 0.765 | 0.637 | 0.975 | 0.958 | 0.907 | 1.05 | 0.991
NCI-H1975 | 1.05 | 0.968 | 0.933 | 0.993 | 0.864 | 1.06 | 0.969 | 0.847 | 0.94 | 1.04 | 0.283 | 0.304 | 0.281 | 0.259 | 1 | 1.15 | 0.978 | 1.03 | 0.892
NCI-H1703 | 0.566 | 0.645 | 0.574 | 0.285 | 0.154 | 0.32 | 0.293 | 0.321 | 0.313 | 0.269 | 0.215 | 0.24 | 0.236 | 0.228 | 0.67 | 0.712 | 0.147 | 0.219 | 0.125
HCC-44 | 0.674 | 0.67 | 0.638 | 0.673 | 0.629 |  |  |  |  |  | 0.69 | 0.523 | 0.886 | 0.728 | 0.823 | 0.84 | 0.739 | 0.881 | 0.848
SK-MES-1 | 1.09 | 1.13 | 0.945 | 1.13 | 1.04 | 1.05 | 0.876 | 0.974 | 0.936 | 1.14 | 0.413 | 0.368 | 0.4 | 0.213 | 1 | 1 | 0.857 | 1.02 | 0.973
NCI-H727 | 0.285 | 0.245 | 0.284 | 0.327 | 0.389 | 0.915 | 0.975 | 0.835 | 0.893 | 0.809 | 0.36 | 0.368 | 0.447 |  | 0.858 | 0.956 | 0.806 | 0.973 | 0.824
RERF-LC-KJ | 0.851 | 0.937 | 0.905 | 0.919 | 0.944 | 0.852 | 0.838 | 0.906 | 0.968 | 0.909 | 0.543 | 0.618 | 0.51 | 0.461 | 0.796 | 0.848 | 0.825 | 0.852 | 0.886
NCI-H1623 |  |  |  |  |  | 0.99 | 0.888 | 0.86 | 0.859 | 0.838 |  |  |  |  |  |  |  |  | 
Calu-6 | 1.01 | 0.813 | 0.873 | 1.03 | 0.936 | 0.881 | 0.774 | 0.828 | 0.956 | 0.976 | 0.917 | 0.931 | 0.901 | 0.889 | 0.812 | 0.814 | 0.787 | 0.854 | 0.835
LCLC-103H | 1.09 | 0.989 | 1.08 | 1.08 | 0.988 | 0.947 | 0.88 | 0.874 | 0.826 | 0.622 | 0.684 | 0.517 | 0.704 | 0.63 | 1.12 | 1.03 | 1.06 | 1 | 1.01
CAL-12T | 0.967 | 0.7 | 0.768 | 0.869 | 0.846 | 1.15 | 1.05 | 1.18 | 1.33 | 1.22 | 0.393 | 0.377 | 0.377 | 0.265 | 0.66 | 0.709 | 0.704 | 0.816 | 0.787
SK-LU-1 | 1.09 | 0.649 | 0.869 | 1.16 | 0.809 | 0.802 | 0.779 | 0.538 | 0.964 | 0.905 | 0.669 | 0.524 | 0.614 | 0.548 | 1 | 0.968 | 0.644 | 0.876 | 0.85
NCI-H1651 | 1.06 | 0.988 | 0.892 | 1.02 | 0.878 | 0.884 | 0.967 | 0.883 | 0.94 | 0.787 | 0.622 | 0.448 | 0.545 | 0.614 | 0.895 | 0.924 | 0.855 | 0.937 | 0.826
